Results: patent US12661348B2, “Systemic formulation of a pyridinone derivate for TG2-related diseases” (Dr. Falk Pharma GmbH, priority 2020, dated 2026)

Tests used:
[1] = tested on: adult patients with Celiac Disease (CeD); experiment: 6-week treatment of Celiac Disease patients under gluten challenge: ALT, AST, ALP levels; type: in vivo, human; conditions: for ALP, Change from baseline / ALT, Change from baseline / AST, Change from baseline / ALP, Difference versus placebo / ALT, Difference versus placebo / AST, Difference versus placebo: baseline to week 6; for Mean alanine aminotransferase (ALT) level, Baseline / Mean alkaline phosphatase (ALP) level, Baseline / Mean aspartate aminotransferase (AST) level, Baseline / Mean ALP level, Week 6 / Mean ALT level, Week 6 / Mean AST level, Week 6: safety population
Protocol: (§1) The efficacy and safety of a 6-week treatment with the compound of formula (I) in the hard gelatine capsule formulation described in example 2 was investigated in 160 adult patients with Celiac Disease (CeD). Patients, who were in clinical and histological remission at start of the study were challenged with 3 grams daily gluten intake and randomized to receive placebo or one of 3 doses of the compound of formula (I), i.e. 10 mg, 50 mg or 100 mg. Each morning after at least 6 hours of fasting, patients took the study drug orally, followed by one biscuit containing 3 g of gluten 30 minutes later, before breakfast. Throughout the 6-week study, patients were required to continue their strict gluten free diet.
as §1, with “described in the example 2” for “described in example 2”, “gluten free diet (see FIG. 12).” for “gluten free diet.”

[2] = tested on: STAM-model and UUO-model; experiment: Dose-activity-relationship in STAM-model and UUO-model; type: in vivo, C57BL/6-mouse
Text: The reduction of the fibrotic area in the tissue in comparison to the untreated control animals can be considered as a measure for the anti-fibrotic effect of compound of formula (I) in STAM-model as well as in the UUO-model. For the STAM- and UUO-model the anti-fibrotic effect in dependence of the dose or in dependence of the exposure (Plasma Cmax or Plasma-AUC) are depicted in FIG. 5.

[3] = Saturation solubility, pH-range 1 to 6.8, HPLC/UV; type: physicochemical; conditions: pH=6.8 (small intestine) compared with pH~1
[4] = tested on: UUO-model in the C57BL/6-mouse; experiment: Unilateral ureteral obstruction model (UUO-model) for nephritic fibrosis; type: in vivo; conditions: 100, 300, 1000 mg/kg body weight daily, oral suspension, two weeks
Text: The anti-fibrotic effect of (S,E)-methyl-7-(1-(2-(2-ethylbutylamino)-2-oxoethyl)-2-oxo-1,2-dihydro-pyridin-3-ylamino)-6-(1-methyl-1H-imidazole-5-carboxamido)-7-oxohept-2-enoate (compound of formula (I)) in the kidney was investigated in an UUO-model in the C57BL/6-mouse. In a UUO-model, in one of the kidneys fibrosis is induced by ligation of one ureter. The other kidney remains functional. The pathophysiology of the UUO-model resembles the chronic nephropathy in humane (Chronic Kidney Disease, CKD).
Groups of 8 UUO-mice were treated directly after ligation of the ureter over a time period of two weeks with three different dosages of said compound: 100 mg/kg body weight, 300 mg/kg body weight, and 1000 mg/kg body weight. The daily dosage was administered orally as a suspension at intervals of 8 hours. In a control group, the UUO-mice were treated in same way but merely with the vehicle methyl cellulose. After the end of the treatment, the histopathological investigation of the kidney tissue as well as the determination of the amount of hydroxyproline in the kidney was performed. […]

[5] = Pharmacokinetic in healthy volunteers, multiple dosing over 7 days; type: in vivo, human; conditions: up to 100 mg
Protocol: The pharmacokinetic of (S,E)-methyl-7-(1-(2-(2-ethylbutylamino)-2-oxoethyl)-2-oxo-1,2-dihydro-pyridin-3-ylamino)-6-(1-methyl-1H-imidazole-5-carboxamido)-7-oxohept-2-enoate (compound of formula (I)) was investigated in healthy volunteers. Cohorts of 18 subjects each were treated with a daily dose of 10, 20, 50 and 100 mg compound of formula (I), respectively over a time period of 7 days. The determination of said compound in blood plasma was performed by means of a previously validated HPLC-MS/MS method.

[6] = tested on: fibrotic liver or kidney diseases in human; experiment: Correlation of the anti-fibrotic effect in the animal model with the human pharmacokinetic; type: in vivo; conditions: from fibrotic area versus Cmax or AUC
Protocol: A comparison of the systemic exposure (Cmax, AUC) of (5,E)-methyl-7-(1-(2-(2-ethylbutylamino)-2-oxoethyl)-2-oxo-1,2-dihydro-pyridin-3-ylamino)-6-(1-methyl-1H-imidazole-5-carboxamido)-7-oxohept-2-enoate in dosage effective in the animal experiments with the systemic exposition which is achieved in human allows an estimation of the potential effective dose range.
In addition, the Cmax or AUC being achieved in human by the dosage of 10, 20, and 50 mg compound of formula (I) is shown.

For `CCC(CC)CNC(=O)Cn1cccc(NC(=O)[C@H](CC/C=C/C(=O)OC)NC(=O)c2cncn2C)c1=O` [compound of formula (I), (S,E)-methyl-7-(1-(2-(2-ethylbutylamino)-2-oxoethyl)-2-oxo-1,2-dihydro-pyridin-3-ylamino)-6-(1-methyl-1H-imidazole-5-carboxamido)-7-oxohept-2-enoate], the “ALP, Change from baseline” value ([1]; 10 mg (N = 41)) was −1.0 U/L, the “ALT, Change from baseline” value ([1]; 10 mg (N = 41)) was −0.5 U/L and the “AST, Change from baseline” value ([1]; 10 mg (N = 41)) was 0 U/L. The “Mean alanine aminotransferase (ALT) level, Baseline” value (“Mean alanine aminotransferase” below) ([1]; 10 mg (N = 41)) was 20.5 U/L, the “Mean alkaline phosphatase (ALP) level, Baseline” value (“Mean alkaline phosphatase” for short) ([1]; 10 mg (N = 41)) was 60.0 U/L and the “Mean aspartate aminotransferase (AST) level, Baseline” value (from here on “Mean aspartate aminotransferase”) ([1]; 10 mg (N = 41)) was 22.5 U/L. For the same compound, the “Mean ALP level, Week 6” value ([1]; 10 mg (N = 41)) was 59.3 U/L, the “Mean ALT level, Week 6” value ([1]; 10 mg (N = 41)) was 20.0 U/L and the “Mean AST level, Week 6” value ([1]; 10 mg (N = 41)) was 22.5 U/L. The “Mean ALT level, Week 10 (Follow-up)” value ([1]; 10 mg (N = 41)) was 19.7 U/L, the “Mean AST level, Week 10 (Follow-up)” value ([1]; 10 mg (N = 41)) was 20.6 U/L and the “ALP, Difference versus placebo” value ([1]; 10 mg versus placebo) was −2.6 U/L. For the same compound, the “ALT, Difference versus placebo” value ([1]; 10 mg versus placebo, P value 0.0019) was −4.4 U/L, the “AST, Difference versus placebo” value ([1]; 10 mg versus placebo, P value 0.0448) was −3.2 U/L and the “ALP, Change from baseline” value ([1]; 50 mg (N = 41)) was −0.5 U/L. The “ALT, Change from baseline” value ([1]; 50 mg (N = 41)) was 0.8 U/L, the “AST, Change from baseline” value ([1]; 50 mg (N = 41)) was 1.0 U/L and the “Mean alanine aminotransferase” value ([1]; 50 mg (N = 41)) was 21.4 U/L. The “Mean alkaline phosphatase” value ([1]; 50 mg (N = 41)) was 57.8 U/L, the “Mean aspartate aminotransferase” value ([1]; 50 mg (N = 41)) was 22.6 U/L and the “Mean ALP level, Week 6” value ([1]; 50 mg (N = 41)) was 57.3 U/L. The “Mean ALT level, Week 6” value ([1]; 50 mg (N = 41)) was 22.2 U/L, the “Mean AST level, Week 6” value ([1]; 50 mg (N = 41)) was 23.6 U/L and the “Mean ALT level, Week 10 (Follow-up)” value ([1]; 50 mg (N = 41)) was 21.7 U/L. The “Mean AST level, Week 10 (Follow-up)” value ([1]; 50 mg (N = 41)) was 21.9 U/L, the “ALP, Difference versus placebo” value ([1]; 50 mg versus placebo) was −2.8 U/L and the “ALT, Difference versus placebo” value ([1]; 50 mg versus placebo, P value 0.0069) was −3.8 U/L. For the same compound, the “AST, Difference versus placebo” value ([1]; 50 mg versus placebo, P value 0.1423) was −2.2 U/L, the “ALP, Change from baseline” value ([1]; 100 mg (N = 40)) was −0.5 U/L and the “ALT, Change from baseline” value ([1]; 100 mg (N = 40)) was −2.6 U/L. The “AST, Change from baseline” value ([1]; 100 mg (N = 40)) was −0.4 U/L, the “Mean alanine aminotransferase” value ([1]; 100 mg (N = 40)) was 26.3 U/L and the “Mean alkaline phosphatase” value ([1]; 100 mg (N = 40)) was 62.7 U/L. The “Mean aspartate aminotransferase” value ([1]; 100 mg (N = 40)) was 26.8 U/L, the “Mean ALP level, Week 6” value ([1]; 100 mg (N = 40)) was 62.3 U/L and the “Mean ALT level, Week 6” value ([1]; 100 mg (N = 40)) was 23.7 U/L. For the same compound, the “Mean AST level, Week 6” value ([1]; 100 mg (N = 40)) was 26.5 U/L, the “Mean ALT level, Week 10 (Follow-up)” value ([1]; 100 mg (N = 40)) was 23.9 U/L and the “Mean AST level, Week 10 (Follow-up)” value ([1]; 100 mg (N = 40)) was 24.3 U/L. For the same compound, the “ALP, Difference versus placebo” value ([1]; 100 mg versus placebo) was −2.8 U/L, the “ALT, Difference versus placebo” value ([1]; 100 mg versus placebo, P value 0.0022) was −4.3 U/L and the “AST, Difference versus placebo” value ([1]; 100 mg versus placebo, P value 0.8551) was 0.3 U/L. For the same compound, the “elevation of alanine aminotransferase (ALT) from baseline to week 6” value ([1]; 10, 50, 100 mg groups, gluten challenge, elevation seen in placebo group) was “not observed”, the “difference between each drug group and placebo in ALT” value ([1]; P<0.01 for all comparisons) was “statistically significant” and the “levels of AST, ALT, total protein” value ([1]; oral, doses of 10, 50 and 100 mg in human) was “significantly reduced”. The “anti-fibrotic effect in dependence of the exposure in plasma” value ([2]; Plasma Cmax or Plasma-AUC) was “almost linear correlation”, the “anti-fibrotic effect in STAM-model versus UUO-model” value ([2]; reduction of the fibrotic area versus control, liver and kidney) was “the same anti-fibrotic effect” and the saturation solubility [3] was “much lower”. The “hydroxyproline content in the kidney” value [4] was “remained unaffected”, the “fibrotic area of the kidney” value ([4]; versus vehicle control) was “significant, marked, dosage dependent reduction” and the “systemic exposure in human versus dose” value [5] was “increases linearly”. For the same compound, the “human dosage at which the anti-fibrotic effect shown in the animal model can be achieved” value [6] was 20 mg.
